What follows are compounds tested against human V1a receptor (Homo sapiens (Human), UniProt P37288) (assay: human V1a receptor binding studies (3H-Vasopressin, SPA beads)). Settings: membranes of HEK293 cells transiently transfected with human V1a receptor, Ki by Cheng-Prusoff.
Description: The human V1a receptor was cloned by RT-PCR from total human liver RNA. The coding sequence was subcloned in an expression vector after sequencing to confirm the identity of the amplified sequence. […] Cell membranes were prepared from HEK293 cells transiently transfected with the expression vector and grown in 20 liter fermenters with the following protocol.
50 g of cells are re-suspended in 30 ml freshly prepared ice cold Lysis buffer ([…] HEPES. 1 mM EDTA, 10 mM MgCl2 adjusted to pH=7.4+complete cocktail of protease inhibitor (Roche Diagnostics)). Homogenized with Polytron for 1 min and sonicated on ice for 2×2 minutes at 80% intensity (Vibracell sonicator). The preparation is centrifuged 20 min at 500 g at 4° C., the pellet is discarded and the supernatant centrifuged 1 hour at 43'000 g at 4° C. (19'000 rpm). The pellet is re-suspended in 12.5 ml Lysis buffer+12.5 ml Sucrose 20% and homogenized using a Polytron for 1-2 min. The protein concentration is determined by the Bradford method and aliquots are stored at −80° C. until use. For binding studies 60 mg Yttrium silicate SPA beads (Amersham) are mixed with an aliquot of membrane in binding buffer (50 mM Tris, 120 mM NaCl, 5 mM KCl, 2 mM CaCl2, 10 mM MgCl) for 15 minutes with mixing. 50 μl of bead/membrane mixture is then added to each well of a 96 well plate, followed by […] of 4 nM 3H-Vasopressin (American Radiolabeled Chemicals). For total binding measurement 100 μl of binding buffer are added to the respective wells, for non-specific binding 100 μl of […] cold vasopressin and for compound testing 100 μl of a serial dilution of each compound in 2% DMSO. The plate is incubated 1 h at room temperature, centrifuged 1 min at 1000 g and counted on a Packard Top-Count. Non-specific binding counts are subtracted from each well and data is normalized to the maximum specific binding set at 100%. To calculate an IC 50 the curve is fitted using a non-linear regression model (XLfit) and the Ki is calculated using the Cheng-Prussoff equation.

Sequence of human V1a receptor (P37288 whole entry): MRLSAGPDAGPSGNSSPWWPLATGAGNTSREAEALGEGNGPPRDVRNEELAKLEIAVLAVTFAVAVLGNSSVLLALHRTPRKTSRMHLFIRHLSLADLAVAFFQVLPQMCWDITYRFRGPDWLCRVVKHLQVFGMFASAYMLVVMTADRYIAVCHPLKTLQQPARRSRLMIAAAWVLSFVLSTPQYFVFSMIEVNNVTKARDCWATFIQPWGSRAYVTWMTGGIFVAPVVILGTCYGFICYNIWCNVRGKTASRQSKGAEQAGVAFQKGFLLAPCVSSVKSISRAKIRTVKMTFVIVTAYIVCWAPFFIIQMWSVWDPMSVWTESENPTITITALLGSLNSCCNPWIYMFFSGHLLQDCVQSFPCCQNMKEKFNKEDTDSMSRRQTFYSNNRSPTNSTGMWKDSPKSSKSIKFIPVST

| Structure (SMILES) | pKi hV1a |
| --- | --- |
| C[Si](C)(C)c1ccc2c(c1)CC1(C2)OC(N2CCC3(CC2)OCc2ccccc23)=NC1=O (stereo not drawn) [Example 29, 2′-(1′H,3H-spiro[2-benzofuran-1,4′-piperidin]-1′-yl)-5-(trimethylsilyl)-1,3-dihydro-4′H-spiro[indene-2,5′-[1,3]oxazol]-4′-one] | 6.2 |
| O=C1N=C(N2CCC3(CC2)OCc2ccccc23)OC12Cc1ccc(F)cc1C2 (stereo not drawn) [Example 30, 5-fluoro-2′-(1′H,3H-spiro[2-benzofuran-1,4′-piperidin]-1′-yl)-1,3-dihydro-4′H-spiro[indene-2,5′-[1,3]oxazol]-4′-one] | 9.0 |
| COc1cc2c(cc1OC)CC1(C2)OC(N2CCC3(CC2)OC(=O)c2ccccc23)=NC1=O [Example 32, 1′-(5,6-dimethoxy-4′-oxo-1,3-dihydro-4′H-spiro[indene-2,5′-[1,3]oxazol)-2′-yl)-3H-spiro[2-benzofuran-1,4′-piperidin]-3-one] | 6.4 |
| O=C1OC2(CCN(C3=NC(=O)C4(Cc5cc(O)c(O)cc5C4)O3)CC2)c2ccccc21 [Example 33, 1′-(5,6-dihydroxy-4′-oxo-1,3-dihydro-4′H-spiro[indene-2,5′-[1,3]oxazol]-2′-yl)-3H-spiro[2-benzofuran-1,4′-piperidin]-3-one] | 6.7 |
| O=C1N=C(N2CCC3(CC2)OCc2ccccc23)OC12Cc1cc(F)c(F)cc1C2 [Example 34, 5,6-difluoro-2′-(1′H,3H-spiro[2-benzofuran-1,4′-piperidin]-1′-yl)-1,3-dihydro-4′H-spiro[indene-2,5′-[1,3]oxazol]-4′-one] | 9.4 |
| O=C1OC2(CCN(C3=NC(=O)C4(Cc5cc(F)c(F)cc5C4)O3)CC2)c2ccccc21 [Example 35, 1′-(5,6-difluoro-4′-oxo-1,3-dihydro-4′H-spiro[indene-2,5′-[1,3]oxazol]-2′-yl)-3H-spiro[2-benzofuran-1,4′-piperidin]-3-one] | 8.9 |
| O=C1N=C(N2CCC3(CC2)OCc2cccnc23)OC12Cc1ccccc1C2 [Example 36, 2′-(1′H,5H-spiro[furo[3,4-b]pyridine-7,4′-piperidin]-1′-yl)-1,3-dihydro-4′H-spiro[indene-2,5′-[1,3]oxazol]-4′-one] | 8.6 |
| O=C1N=C(N2CCC3(CC2)OCc2ncccc23)OC12Cc1ccccc1C2 [Example 37, 2′-(1′H,7H-spiro[furo[3,4-b]pyridine-5,4′-piperidin]-1′-yl)-1,3-dihydro-4′H-spiro[indene-2,5′-[1,3]oxazol]-4′-one] | 8.0 |
| CC1(C)OC2(CCN(C3=NC(=O)C4(Cc5ccccc5C4)O3)CC2)c2ncccc21 [Example 38, 2′-(5,5-dimethyl-1′H,5H-spiro[furo[3,4-b]pyridine-7,4′-piperidin]-1′-yl)-1,3-dihydro-4′H-spiro[indene-2,5′-[1,3]oxazol]-4′-one] | 9.2 |
| CC1(C)OC2(CCN(C3=NC(=O)C4(Cc5ccccc5C4)O3)CC2)c2cccnc21 [Example 39, 2′-(7,7-dimethyl-1′H,7H-spiro[furo[3,4-b]pyridine-5,4′-piperidin]-1′-yl)-1,3-dihydro-4′H-spiro[indene-2,5′-[1,3]oxazol]-4′-one] | 9.1 |
| COc1ccc2c(c1)CC1(C2)OC(N2CCC3(CC2)OC(C)(C)c2ncccc23)=NC1=O (stereo not drawn) [Example 40, 2′-(7,7-dimethyl-1′H,7H-spiro[furo[3,4-b]pyridine-5,4′-piperidin]-1′-yl)-5-methoxy-1,3-dihydro-4′H-spiro[indene-2,5′-[1,3]oxazol]-4′-one] | 8.3 |
| CC1(C)OC2(CCN(C3=NC(=O)C4(Cc5ccc(O)cc5C4)O3)CC2)c2cccnc21 (stereo not drawn) [Example 41, 2′-(7,7-dimethyl-1′H,7H-spiro[furo[3,4-b]pyridine-5,4′-piperidin]-1′-yl)-5-hydroxy-1,3-dihydro-4′H-spiro[indene-2,5′-[1,3]oxazol]-4′-one] | 8.9 |
| Cc1ccc2c(n1)C1(CCN(C3=NC(=O)C4(Cc5ccccc5C4)O3)CC1)OC2 [Example 42, 2′-(2-methyl-1′H,5H-spiro[furo[3,4-b]pyridine-7,4′-piperidin]-1′-yl)-1,3-dihydro-4′H-spiro[indene-2,5′-[1,3]oxazol]-4′-one] | 9.1 |
| Cc1ccc2c(n1)C1(CCN(C3=NC(=O)C4(Cc5ccccc5C4)O3)CC1)OC2=O [Example 43, 2-methyl-1′-(4′-oxo-1,3-dihydro-4′H-spiro[indene-2,5′-[1,3]oxazol]-2′-yl)-5H-spiro[furo[3,4-b]pyridine-7,4′-piperidin]-5-one] | 8.3 |
| Cc1cnc2c(c1)COC21CCN(C2=NC(=O)C3(Cc4ccccc4C3)O2)CC1 [Example 44, 2′-(3-methyl-1′H,5H-spiro[furo[3,4-b]pyridine-7,4′-piperidin]-1′-yl)-1,3-dihydro-4′H-spiro[indene-2,5′-[1,3]oxazol]-4′-one] | 8.7 |
| Cc1cnc2c(c1)C(=O)OC21CCN(C2=NC(=O)C3(Cc4ccccc4C3)O2)CC1 [Example 45, 3-methyl-1′-(4′-oxo-1,3-dihydro-4′H-spiro[indene-2,5′-[1,3]oxazol]-2′-yl)-5H-spiro[furo[3,4-b]pyridine-7,4′-piperidin]-5-one] | 7.6 |
| Cc1ccc2c(n1)COC21CCN(C2=NC(=O)C3(Cc4ccccc4C3)O2)CC1 [Example 48, 2′-(2-methyl-1′H,7H-spiro[furo[3,4-b]pyridine-5,4′-piperidin]-1′-yl)-1,3-dihydro-4′H-spiro[indene-2,5′-[1,3]oxazol]-4′-one] | 7.9 |
| Cc1ccc2c(n1)C(=O)OC21CCN(C2=NC(=O)C3(Cc4ccccc4C3)O2)CC1 [Example 49, 2-methyl-1′-(4′-oxo-1,3-dihydro-4′H-spiro[indene-2,5′-[1,3]oxazol]-2′-yl)-7H-spiro[furo[3,4-b]pyridine-5,4′-piperidin]-7-one] | 7.0 |
| Cc1cnc2c(c1)C1(CCN(C3=NC(=O)C4(Cc5ccccc5C4)O3)CC1)OC2 [Example 52, 2′-(3-methyl-1′H,7H-spiro[furo[3,4-b]pyridine-5,4′-piperidin]-1′-yl)-1,3-dihydro-4′H-spiro[indene-2,5′-[1,3]oxazol]-4′-one] | 8.3 |
| Cc1cnc2c(c1)C1(CCN(C3=NC(=O)C4(Cc5ccccc5C4)O3)CC1)OC2=O [Example 53, 3-methyl-1′-(4′-oxo-1,3-dihydro-4′H-spiro[indene-2,5′-[1,3]oxazol]-2′-yl)-7H-spiro[furo[3,4-b]pyridine-5,4′-piperidin]-7-one] | 7.4 |
| O=C1OC2(CCN(C3=NC(=O)C4(Cc5ccccc5C4)O3)CC2)c2cnc(Cl)cc21 [Example 54, 6-chloro-1′-(4′-oxo-1,3-dihydro-4′H-spiro[indene-2,5′-[1,3]oxazol]-2′-yl)-1H-spiro[furo[3,4-c]pyridine-3,4′-piperidin]-1-one] | 7.4 |
| O=C1OC2(CCN(C3=NC(=O)C4(Cc5ccccc5C4)O3)CC2)c2c1ccnc2Cl [Example 55, 4-chloro-1′-(4-oxo-1,3-dihydro-4′H-spiro[indene-2,5′-[1,3]oxazol]-2′-yl)-1H-spiro[furo[3,4-c]pyridine-3,4′-piperidin]-1-one] | 6.5 |
| O=C1N=C(N2CCC3(CC2)OCc2ccccc23)OC12Cc1cccnc1C2 (stereo not drawn) [Example 56, 2′-(1′H,3H-spiro[2-benzofuran-1,4′-piperidin]-1′-yl)-5,7-dihydro-4′H-spiro[cyclopenta[b]pyridine-6,5′-[1,3]oxazol]-4′-one] | 8.2 |
| O=C1N=C(N2CCC3(CC2)OCc2ccccc23)OC12Cc1cnc(CCl)cc1C2 (stereo not drawn) [Example 57, 3-(chloromethyl)-2′-(1′H,3H-spiro[2-benzofuran-1,4′-piperidin]-1′-yl)-5,7-dihydro-4′H-spiro[cyclopenta[c]pyridine-6,5′-[1,3]oxazol]-4′-one] | 6.3 |
| Cc1cc2c(cn1)CC1(C2)OC(N2CCC3(CC2)OCc2ccccc23)=NC1=O (stereo not drawn) [Example 58, 3-methyl-2′-(1′H,3H-spiro[2-benzofuran-1,4′-piperidin]-1′-yl)-5,7-dihydro-4′H-spiro[cyclopenta[c]pyridine-6,5′-[1,3]oxazol]-4′-one] | 7.7 |
| O=C1N=C(N2CCC3(CC2)OCc2ccccc23)OC12Cc1cnc(CF)cc1C2 (stereo not drawn) [Example 59, 3-(fluoromethyl)-2′-(1′H,3H-spiro[2-benzofuran-1,4′-piperidin]-1′-yl)-5,7-dihydro-4′H-spiro[cyclopenta[c]pyridine-6,5′-[1,3]oxazol]-4′-one] | 7.6 |
| O=C1N=C(N2CCC3(CC2)OCc2ccccc23)OC12Cc1cnc(C(F)F)cc1C2 (stereo not drawn) [Example 60, 3-(difluoromethyl)-2′-(1′H,3H-spiro[2-benzofuran-1,4′-piperidin]-1′-yl)-5,7-dihydro-4′H-spiro[cyclopenta[c]pyridine-6,5′-[1,3]oxazol]-4′-one] | 7.7 |

— patent US11578077B2, “Spiro-oxazolones” (Hoffmann-La Roche Inc., priority 2013, dated 2023)
